Measurements: patent US8415272B2, “Quinoline derivatives and their use as fungicides” (Syngenta Crop Protection LLC, priority 2008, dated 2013)

Experiments:
Pyrenophora teres = assay: Leaf disk assay, Pyrenophora teres (barley net blotch), preventive; format: in vivo; conditions: foliar, 96 h, barley leaf segments, assessed four days after inoculation, read-out: control of fungal infection, Pyrenophora teres
Method: The compounds were tested in a leaf disk assay, with methods described below. The test compounds were dissolved in DMSO and diluted into water to 200 ppm. In the case of the test on Pythium ultimum, they were dissolved in DMSO and diluted into water to 20 ppm. Pyrenophora teres (barley net blotch): Barley leaf segments were placed on agar in a 24-well plate and sprayed with a solution of the test compound. After allowing to dry completely, for between 12 and 24 hours, the leaf disks were inoculated with a spore suspension of the fungus. After appropriate incubation the activity of a compound was assessed four days after inoculation as preventive fungicidal activity.

Pythium ultimum = assay: Growth inhibition in potato dextrose broth, Pythium ultimum (damping off), photometric; format: cell-based; conditions: Globisporangium ultimum, 24° C., 48 hours, read-out: control of fungal infection, Pythium ultimum
Outline: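 Growth inhibition was read photometrically at 48 hours after incubation at 24° C. Test compound was diluted from DMSO to 20 ppm in water and combined with potato dextrose broth seeded with Pythium ultimum mycelial fragments.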

Fusarium culmorum = assay: Growth inhibition in nutrient broth, Fusarium culmorum (root rot), photometric; format: cell-based; conditions: 48 h, read-out: control of fungal infection, Fusarium culmorum
Outline: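 Fusarium culmorum conidia in potato dextrose broth were added to compounds in DMSO. Plates were incubated at 24 C for 48 hrs, with growth inhibition read photometrically. […]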

Plasmopara viticola = assay: Leaf disk assay, Plasmopara viticola (downy mildew of grapevine), preventive; format: in vivo; conditions: foliar, 168 h, grapevine leaf disks, assessed seven days after inoculation, read-out: control of fungal infection, Plasmopara viticola
Phytophthora infestans = assay: whole plant or invertebrate; format: in vivo; conditions: in Solanum lycopersicum, foliar, 96 h, read-out: control of fungal infection, Phytophthora infestans
[1] = test system: Puccinia recondita f.sp. tritici; assay: Leaf disk assay, Puccinia recondita f.sp. tritici (wheat brown rust), preventive; format: in vivo; conditions: foliar, 216 h, wheat leaf segments, assessed nine days after inoculation, read-out: control of fungal infection, Puccinia recondita f.sp. tritici
[2] = test system: Erysiphe graminis f.sp. tritici; assay: Leaf disk assay, Erysiphe graminis f.sp. tritici (wheat powdery mildew), preventive; format: in vivo; conditions: Blumeria graminis, foliar, 96 h, wheat leaf segments, assessed four days after inoculation, read-out: control of fungal infection, Erysiphe graminis f.sp. tritici
Outline: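 Preventive protocol: compound at 200 ppm in water (from DMSO) sprayed onto wheat leaf segments on agar, dried 12–24 h, then spore-inoculated. Fungicidal activity was assessed four days post-inoculation.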

Septoria nodorum = assay: Leaf disk assay, Septoria nodorum (wheat glume blotch), preventive; format: in vivo; conditions: Parastagonospora nodorum, foliar, 96 h, wheat leaf segments, assessed four days after inoculation, read-out: control of fungal infection, Septoria nodorum
Septoria tritici = assay: Growth inhibition in nutrient broth, Septoria tritici (leaf blotch), photometric; format: cell-based; conditions: Zymoseptoria tritici, PDB broth, 24 C, 72 hrs, read-out: control of fungal infection, Septoria tritici

C#Cc1cnc2ccc(OC(SC)C(=O)NC(C)(C)C#CC)cc2c1 (stereo not drawn) [Example 22]
≥ 60%: pest or weed control at 200 ppm (Pyrenophora teres) | inhibition of growth at 20 ppm (Pythium ultimum) | inhibition of growth at 60 ppm (Fusarium culmorum) | pest or weed control at 200 ppm (Plasmopara viticola) | pest or weed control at 200 ppm (Phytophthora infestans) | pest or weed control at 200 ppm [1] | pest or weed control at 200 ppm [2] | pest or weed control at 200 ppm (Septoria nodorum) | inhibition of growth at 60 ppm (Septoria tritici)

C#Cc1cnc2cc(F)c(OC(SC)C(=O)NC(C)(C)C)cc2c1 (stereo not drawn) [Example 104]
≥ 60%: pest or weed control at 200 ppm (Pyrenophora teres) | inhibition of growth at 20 ppm (Pythium ultimum) | inhibition of growth at 60 ppm (Fusarium culmorum) | pest or weed control at 200 ppm (Plasmopara viticola) | pest or weed control at 200 ppm (Phytophthora infestans) | pest or weed control at 200 ppm [1] | pest or weed control at 200 ppm [2] | pest or weed control at 200 ppm (Septoria nodorum) | inhibition of growth at 60 ppm (Septoria tritici)

C#Cc1cnc2c(Br)cc(OC(SC)C(=O)NC(C)(C)C)cc2c1 (stereo not drawn) [Example 132]
≥ 60%: pest or weed control at 200 ppm (Pyrenophora teres) | inhibition of growth at 20 ppm (Pythium ultimum) | inhibition of growth at 60 ppm (Fusarium culmorum) | pest or weed control at 200 ppm (Plasmopara viticola) | pest or weed control at 200 ppm (Phytophthora infestans) | pest or weed control at 200 ppm [1] | pest or weed control at 200 ppm [2] | pest or weed control at 200 ppm (Septoria nodorum) | inhibition of growth at 60 ppm (Septoria tritici)

C#Cc1cnc2c(F)c(F)c(OC(SC)C(=O)NC(C)(C)C)cc2c1 (stereo not drawn) [Example 219]
≥ 60%: pest or weed control at 200 ppm (Pyrenophora teres) | inhibition of growth at 20 ppm (Pythium ultimum) | inhibition of growth at 60 ppm (Fusarium culmorum) | pest or weed control at 200 ppm (Plasmopara viticola) | pest or weed control at 200 ppm (Phytophthora infestans) | pest or weed control at 200 ppm [1] | pest or weed control at 200 ppm [2] | pest or weed control at 200 ppm (Septoria nodorum) | inhibition of growth at 60 ppm (Septoria tritici)

C#Cc1cnc2ccc(OC(SC)C(=O)NC(C)(C)C#CCC)cc2c1 (stereo not drawn) [Example 117]
≥ 60%: pest or weed control at 200 ppm (Pyrenophora teres) | inhibition of growth at 20 ppm (Pythium ultimum) | inhibition of growth at 60 ppm (Fusarium culmorum) | pest or weed control at 200 ppm (Plasmopara viticola) | pest or weed control at 200 ppm (Phytophthora infestans) | pest or weed control at 200 ppm [1] | pest or weed control at 200 ppm [2] | pest or weed control at 200 ppm (Septoria nodorum) | inhibition of growth at 60 ppm (Septoria tritici)

C#Cc1cnc2c(Br)cc(OC(SC)C(=O)NC(C)(C)C#C)cc2c1 (stereo not drawn) [Example 130]
≥ 60%: pest or weed control at 200 ppm (Pyrenophora teres) | inhibition of growth at 20 ppm (Pythium ultimum) | inhibition of growth at 60 ppm (Fusarium culmorum) | pest or weed control at 200 ppm (Plasmopara viticola) | pest or weed control at 200 ppm (Phytophthora infestans) | pest or weed control at 200 ppm [1] | pest or weed control at 200 ppm [2] | pest or weed control at 200 ppm (Septoria nodorum) | inhibition of growth at 60 ppm (Septoria tritici)

C#Cc1cnc2c(Br)cc(OC(SC)C(=O)NC(C)(C)C#CC)cc2c1 (stereo not drawn) [Example 131]
≥ 60%: pest or weed control at 200 ppm (Pyrenophora teres) | inhibition of growth at 20 ppm (Pythium ultimum) | inhibition of growth at 60 ppm (Fusarium culmorum) | pest or weed control at 200 ppm (Plasmopara viticola) | pest or weed control at 200 ppm (Phytophthora infestans) | pest or weed control at 200 ppm [1] | pest or weed control at 200 ppm [2] | pest or weed control at 200 ppm (Septoria nodorum) | inhibition of growth at 60 ppm (Septoria tritici)

C#Cc1cnc2c(Cl)cc(OC(SC)C(=O)NC(C)(C)C)cc2c1 (stereo not drawn) [Example 18]
≥ 60%: pest or weed control at 200 ppm (Pyrenophora teres) | inhibition of growth at 20 ppm (Pythium ultimum) | inhibition of growth at 60 ppm (Fusarium culmorum) | pest or weed control at 200 ppm (Plasmopara viticola) | pest or weed control at 200 ppm (Phytophthora infestans) | pest or weed control at 200 ppm [1] | pest or weed control at 200 ppm [2] | pest or weed control at 200 ppm (Septoria nodorum) | inhibition of growth at 60 ppm (Septoria tritici)

C#Cc1cnc2c(C)cc(OC(SC)C(=O)NC(C)(C)CF)cc2c1 (stereo not drawn) [Example 93]
≥ 60%: pest or weed control at 200 ppm (Pyrenophora teres) | inhibition of growth at 20 ppm (Pythium ultimum) | inhibition of growth at 60 ppm (Fusarium culmorum) | pest or weed control at 200 ppm (Plasmopara viticola) | pest or weed control at 200 ppm (Phytophthora infestans) | pest or weed control at 200 ppm [1] | pest or weed control at 200 ppm [2] | pest or weed control at 200 ppm (Septoria nodorum) | inhibition of growth at 60 ppm (Septoria tritici)

C#Cc1cnc2ccc(OC(SC)C(=O)NC(C)(C)C#C)cc2c1 (stereo not drawn) [Example 21]
≥ 60%: pest or weed control at 200 ppm (Pyrenophora teres) | inhibition of growth at 20 ppm (Pythium ultimum) | inhibition of growth at 60 ppm (Fusarium culmorum) | pest or weed control at 200 ppm (Plasmopara viticola) | pest or weed control at 200 ppm (Phytophthora infestans) | pest or weed control at 200 ppm [1] | pest or weed control at 200 ppm [2] | pest or weed control at 200 ppm (Septoria nodorum) | inhibition of growth at 60 ppm (Septoria tritici)

C#Cc1cnc2cc(F)c(OC(SC)C(=O)NC(C)(C)C#C)cc2c1 (stereo not drawn) [Example 106]
≥ 60%: pest or weed control at 200 ppm (Pyrenophora teres) | inhibition of growth at 20 ppm (Pythium ultimum) | inhibition of growth at 60 ppm (Fusarium culmorum) | pest or weed control at 200 ppm (Plasmopara viticola) | pest or weed control at 200 ppm (Phytophthora infestans) | pest or weed control at 200 ppm [1] | pest or weed control at 200 ppm [2] | pest or weed control at 200 ppm (Septoria nodorum) | inhibition of growth at 60 ppm (Septoria tritici)

C#Cc1cnc2ccc(OC(SC)C(=O)NC(C)(C)C#CCOC)cc2c1 (stereo not drawn) [Example 23]
≥ 60%: pest or weed control at 200 ppm (Pyrenophora teres) | inhibition of growth at 20 ppm (Pythium ultimum) | inhibition of growth at 60 ppm (Fusarium culmorum) | pest or weed control at 200 ppm (Plasmopara viticola) | pest or weed control at 200 ppm (Phytophthora infestans) | pest or weed control at 200 ppm [1] | pest or weed control at 200 ppm [2] | pest or weed control at 200 ppm (Septoria nodorum) | inhibition of growth at 60 ppm (Septoria tritici)

C#CCOCC#CC(C)(C)NC(=O)C(Oc1ccc2ncc(C#C)cc2c1)SC (stereo not drawn) [Example 24]
≥ 60%: pest or weed control at 200 ppm (Pyrenophora teres) | inhibition of growth at 20 ppm (Pythium ultimum) | inhibition of growth at 60 ppm (Fusarium culmorum) | pest or weed control at 200 ppm (Plasmopara viticola) | pest or weed control at 200 ppm (Phytophthora infestans) | pest or weed control at 200 ppm [1] | pest or weed control at 200 ppm [2] | pest or weed control at 200 ppm (Septoria nodorum) | inhibition of growth at 60 ppm (Septoria tritici)

C#Cc1cnc2ccc(OC(SC)C(=O)NC(C)(C)COC)cc2c1 (stereo not drawn) [Example 29]
≥ 60%: pest or weed control at 200 ppm (Pyrenophora teres) | inhibition of growth at 20 ppm (Pythium ultimum) | inhibition of growth at 60 ppm (Fusarium culmorum) | pest or weed control at 200 ppm (Plasmopara viticola) | pest or weed control at 200 ppm (Phytophthora infestans) | pest or weed control at 200 ppm [1] | pest or weed control at 200 ppm [2] | pest or weed control at 200 ppm (Septoria nodorum) | inhibition of growth at 60 ppm (Septoria tritici)
